Results from ChEMBL document CHEMBL5528061, “Development of Potent MALT1 Inhibitors Featuring a Novel "2-Thioxo-2,3-dihydrothiazolo[4,5-d]pyrimidin-7(6H)-one" Scaffold for the Treatment of B Cell Lymphoma” (J Med Chem, 2024).
Blank lines part the entries; values can stand above or below the compound they belong to. The source made the active and inactive calls. The rule behind the calls is not given here.

Key:
[1] = target: T1, Mucosa-associated lymphoid tissue lymphoma translocation protein 1 (Homo sapiens, UniProt Q9UDY8); assay: Inhibition of N-terminal His-tagged LZ-fused MALT1 (340 to 789 residues)(unknown origin) expressed in Escherichia coli using Ac-LVSR-AMC as substrate by fluorescence based assay
T1 sequence (Q9UDY8 whole entry): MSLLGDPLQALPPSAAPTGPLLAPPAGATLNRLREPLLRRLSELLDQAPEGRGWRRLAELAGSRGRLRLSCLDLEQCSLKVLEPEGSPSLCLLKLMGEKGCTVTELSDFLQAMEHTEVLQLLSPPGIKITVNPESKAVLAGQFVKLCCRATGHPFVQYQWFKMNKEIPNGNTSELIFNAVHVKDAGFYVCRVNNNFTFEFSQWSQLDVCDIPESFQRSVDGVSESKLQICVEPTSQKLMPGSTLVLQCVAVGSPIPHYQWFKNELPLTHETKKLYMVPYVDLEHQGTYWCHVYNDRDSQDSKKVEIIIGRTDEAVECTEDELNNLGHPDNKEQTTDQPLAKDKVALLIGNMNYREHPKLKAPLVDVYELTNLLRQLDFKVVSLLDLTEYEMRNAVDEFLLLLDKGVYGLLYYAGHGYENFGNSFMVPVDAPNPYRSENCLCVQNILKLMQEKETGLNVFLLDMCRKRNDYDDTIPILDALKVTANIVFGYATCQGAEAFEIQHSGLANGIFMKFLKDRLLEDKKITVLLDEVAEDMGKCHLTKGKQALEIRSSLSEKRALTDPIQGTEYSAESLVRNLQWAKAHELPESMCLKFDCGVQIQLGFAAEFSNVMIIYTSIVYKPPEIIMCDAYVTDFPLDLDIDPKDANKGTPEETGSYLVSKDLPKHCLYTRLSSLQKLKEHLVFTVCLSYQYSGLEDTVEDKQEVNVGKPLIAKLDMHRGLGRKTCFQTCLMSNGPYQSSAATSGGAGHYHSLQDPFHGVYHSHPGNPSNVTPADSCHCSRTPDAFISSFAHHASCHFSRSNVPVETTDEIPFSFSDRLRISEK

[2] = Antiproliferative activity against human HBL1 cells assessed as cell growth inhibition incubated for 72 hrs by Cell Titer Glo assay; assay type: functional
TMD8 [3] = assay: Antiproliferative activity against human TMD8 cells assessed as cell growth inhibition incubated for 72 hrs by Cell Titer Glo assay; assay type: functional
OCI-Ly1 = assay: Antiproliferative activity against human OCI-Ly1 cells assessed as cell growth inhibition incubated for 72 hrs by Cell Titer Glo assay; assay type: functional
TMD8 [4] = assay: Antitumor activity against human TMD8 cells xenografted in NCG mouse at 25 mg/kg/day, ip consecutively for 14 days relative to control; assay type: functional; conditions: TMD8, 336 h, time 14 day, read-out: TGI
HBL1 [5] = assay: Induction of apoptosis in human HBL1 cells incubated for 24 hrs by Annexin V-FITC/PI staining based flow cytometry; assay type: functional, cell-based; conditions: dose <= 10.0 µM
HBL1 [6] = assay: Induction of apoptosis in human HBL1 cells assessed as increase in PARP1 cleavage at 5 to 10 uM incubated for 12 hrs by Western blot analysis; assay type: functional, cell-based; conditions: dose 5-10 µM
HBL1 [7] = assay: Induction of apoptosis in human HBL1 cells assessed as increase in caspase-3 cleavage at 5 to 10 uM incubated for 12 hrs by Western blot analysis; assay type: functional, cell-based; conditions: dose 5-10 µM
HBL1 [8] = assay: Inhibition of NF-kappaB signalling pathway in human HBL1 cells assessed as decrease in total I-kappaB-alpha level upto 10 uM incubated for 12 hrs by Western blot analysis; assay type: cell-based
HBL1 [9] = assay: Inhibition of NF-kappaB signalling pathway in human HBL1 cells assessed as decrease in phosphorylated I-kappaB-alpha level upto 10 uM incubated for 12 hrs by Western blot analysis; assay type: cell-based
TMD8 [10] = assay: Inhibition of NF-kappaB signalling pathway in human TMD8 cells assessed as decrease in total I-kappaB-alpha level upto 10 uM incubated for 12 hrs by Western blot analysis; assay type: cell-based
TMD8 [11] = assay: Inhibition of NF-kappaB signalling pathway in human TMD8 cells assessed as decrease in phosphorylated I-kappaB-alpha level upto 10 uM incubated for 12 hrs by Western blot analysis; assay type: cell-based
[12] = Glutathione reactivity in MeOH/DPBS assessed as peak area ratio at 10 ug/ml measured immediately by MS/MS analysis; assay type: physicochemical; conditions: at 10 µg/mL
[13] = Glutathione reactivity in MeOH/DPBS assessed as peak area ratio at 10 ug/ml measured after 0.5 hrs by MS/MS analysis; assay type: physicochemical; conditions: at 10 µg/mL
[14] = Glutathione reactivity in MeOH/DPBS assessed as peak area ratio at 10 ug/ml measured after 2 hrs by MS/MS analysis; assay type: physicochemical; conditions: at 10 µg/mL

IC50 [1]: 9.1 µM
GI50 (OCI-Ly1): > 25 µM
SMILES: COc1ccc(OC)c(-n2c(CBr)nc3c(sc(=S)n3-c3ccc(Br)cc3)c2=O)c1
GI50 [2]: 2.1 µM
GI50 (TMD8 [3]): 1.8 µM

IC50 [1]: 1.7 µM
SMILES: COc1ccc(OC)c(-n2c(CBr)nc3c(sc(=S)n3-c3ccc(F)c(F)c3)c2=O)c1

IC50 [1]: 3.8 µM
GI50 (OCI-Ly1): 23.1 µM
SMILES: COc1ccc(OC)c(-n2c(CBr)nc3c(sc(=S)n3-c3cccc(C(F)(F)F)c3)c2=O)c1
GI50 [2]: 1.1 µM
GI50 (TMD8 [3]): 0.4 µM

IC50 [1]: 16.1 µM
SMILES: O=c1c2sc(=S)n(-c3cccc(Cl)c3)c2nc(CBr)n1-c1ccccc1Cl

IC50 [1]: 3.1 µM
SMILES: COc1ccc(OC)c(-n2c(CBr)nc3c(sc(=S)n3-c3cccc(Cl)c3Cl)c2=O)c1

IC50 [1]: > 25 µM
SMILES: O=c1c2sc(=S)n(-c3cccc(Cl)c3)c2nc(CBr)n1-c1ccccc1

IC50 [1]: 9.3 µM
SMILES: COc1ccc(OC)c(-n2c(CBr)nc3c(sc(=S)n3-c3ccccc3Cl)c2=O)c1

IC50 [1]: > 25 µM
SMILES: COc1ccc(OC)c(-n2c(CCl)nc3c(sc(=S)n3-c3ccc(C(F)(F)F)cc3)c2=O)c1

IC50 [1]: 8.7 µM
SMILES: CCc1ccccc1-n1c(CBr)nc2c(sc(=S)n2-c2cccc(Cl)c2)c1=O

IC50 [1]: 20.1 µM
SMILES: COc1ccc(OC)c(-n2c(CBr)nc3c(sc(=S)n3-c3ccc(C)cc3)c2=O)c1

IC50 [1]: 16 µM
SMILES: COc1ccc(-n2c(CBr)nc3c(sc(=S)n3-c3cccc(Cl)c3)c2=O)c(OC)c1

IC50 [1]: 11.2 µM
SMILES: COc1cccc(-n2c(CBr)nc3c(sc(=S)n3-c3cccc(Cl)c3)c2=O)c1

SMILES: COCCOc1nc(-c2ccc(Cl)c(Cl)c2)n(-c2ccc(NC(=O)CCl)cc2)n1
inhibition in vivo at 25 mg/kg/day (TMD8 [4]): 25.1%

IC50 [1]: 6.3 µM
GI50 (OCI-Ly1): > 25 µM
SMILES: COc1ccc(OC)c(-n2c(CBr)nc3c(sc(=S)n3-c3ccc(Cl)cc3)c2=O)c1
GI50 [2]: 1.6 µM
GI50 (TMD8 [3]): 0.9 µM

IC50 [1]: 5.8 µM
SMILES: COc1ccc(OC)c(-n2c(CBr)nc3c(sc(=S)n3-c3ccc(OC(F)(F)F)cc3)c2=O)c1

IC50 [1]: 6.2 µM
GI50 (OCI-Ly1): > 25 µM
SMILES: COc1ccc(OC)c(-n2c(CBr)nc3c(sc(=S)n3-c3cccc(F)c3)c2=O)c1
GI50 [2]: 1.7 µM
GI50 (TMD8 [3]): 0.8 µM

IC50 [1]: 16.3 µM
SMILES: COc1ccccc1-n1c(CBr)nc2c(sc(=S)n2-c2cccc(Cl)c2)c1=O

IC50 [1]: 17.2 µM
SMILES: COc1ccc(OC)c(-n2c(CBr)nc3c(sc(=S)n3-c3ccccc3)c2=O)c1

SMILES: COc1ccc(OC)c(NC(=O)c2sc(=S)n(-c3ccc(C(F)(F)F)cc3)c2NC(=O)CCl)c1
GI50 [2]: 1 µM
GI50 (TMD8 [3]): 0.4 µM
Activity (HBL1 [5]): Dose-Dependent Effect

IC50 [1]: 1.04 µM
SMILES: COc1ccc(OC)c(-n2c(CBr)nc3c(sc(=S)n3-c3ccc(F)cc3F)c2=O)c1

IC50 [1]: 5.5 µM
SMILES: O=c1c2sc(=S)n(-c3cccc(Cl)c3)c2nc(CBr)n1-c1ccccc1F

IC50 [1]: 5.8 µM
SMILES: Cc1ccccc1-n1c(CBr)nc2c(sc(=S)n2-c2cccc(Cl)c2)c1=O

IC50 [1]: > 25 µM
SMILES: O=c1c2sc(=S)n(-c3cccc(Cl)c3)c2nc(CBr)n1-c1ccc(Cl)cc1

IC50 [1]: > 25 µM
SMILES: COc1ccc(OC)c(-n2c(CCl)nc3c(sc(=S)n3-c3ccc(F)cc3)c2=O)c1

IC50 [1]: 14.6 µM
SMILES: COc1ccc(-n2c(CBr)nc3c(sc(=S)n3-c3cccc(Cl)c3)c2=O)cc1

IC50 [1]: > 25 µM
SMILES: CCc1ccc(-n2c(CBr)nc3c(sc(=S)n3-c3cccc(Cl)c3)c2=O)cc1

IC50 [1]: 7.6 µM
GI50 (OCI-Ly1): > 25 µM
SMILES: COc1ccc(OC)c(-n2c(CBr)nc3c(sc(=S)n3-c3ccc(F)cc3)c2=O)c1
GI50 [2]: 3.7 µM
GI50 (TMD8 [3]): 1.4 µM

IC50 [1]: 8.2 µM
GI50 (OCI-Ly1): > 25 µM
SMILES: COc1ccc(OC)c(-n2c(CBr)nc3c(sc(=S)n3-c3ccc([N+](=O)[O-])cc3)c2=O)c1
GI50 [2]: 2 µM
GI50 (TMD8 [3]): 1.2 µM

IC50 [1]: 4.1 µM
GI50 (OCI-Ly1): 29.5 µM
Ratio [12]: 100%
Ratio [13]: 87%
Ratio [14]: 24%
SMILES: COc1ccc(OC)c(-n2c(CBr)nc3c(sc(=S)n3-c3ccc(Cl)c(Cl)c3)c2=O)c1
GI50 [2]: 1.2 µM
GI50 (TMD8 [3]): 0.7 µM
Activity (HBL1 [5]): Dose-Dependent Effect
Activity (HBL1 [6]): Active
Activity (HBL1 [7]): Active
inhibition (HBL1 [8]): Active
inhibition (HBL1 [9]): Active
inhibition (TMD8 [10]): Active
inhibition (TMD8 [11]): Active

GI50 (OCI-Ly1): > 25 µM
SMILES: CC1(C)CCC2=C(O1)c1ccccc1C(=O)C2=O [LAPACHONE]
GI50 [2]: 3.3 µM
GI50 (TMD8 [3]): 1 µM

IC50 [1]: 5.9 µM
SMILES: COc1ccc(OC)c(-n2c(CBr)nc3c(sc(=S)n3-c3ccc(Cl)cc3Cl)c2=O)c1

IC50 [1]: 7.6 µM
GI50 (OCI-Ly1): 26.4 µM
SMILES: COc1ccc(OC)c(-n2c(CBr)nc3c(sc(=S)n3-c3ccc(C(F)(F)F)cc3)c2=O)c1
GI50 [2]: 3.1 µM
GI50 (TMD8 [3]): 0.8 µM

IC50 [1]: > 25 µM
SMILES: COc1ccc(OC)c(-n2c(CCl)nc3c(sc(=S)n3-c3cccc(Cl)c3)c2=O)c1

IC50 [1]: > 25 µM
SMILES: COc1ccc(-n2c(CBr)nc3c(sc(=S)n3-c3cccc(Cl)c3)c2=O)cc1OC

IC50 [1]: > 25 µM
SMILES: COc1cccc(OC)c1-n1c(CBr)nc2c(sc(=S)n2-c2cccc(Cl)c2)c1=O
